Data taken from patent publication US9605064B2, “Methods and compositions for treatment of skin disorders” (AbbVie Biotechnology Ltd, priority 2006, dated 2017).
Marks after values point to notes of the source that are not given here.

Assays:
Type in all cases: in vivo, human
[1] = system: patients with moderate to severe chronic plaque psoriasis; assay: PGA, CHAMPION 16-week Phase III trial; conditions: ITT, missing PGA = not achieving
Description: (§1) Analytical methods included the following: • Intention-to-treat analyses were performed for all randomized patients • Missing data were analyzed using non-responder imputation (NRI) • PASI 75 at Week 16 (primary endpoint) was analyzed using adjusted Cochran-Mantel-Haenszel test.

[2] = system: patients with moderate to severe psoriasis; assay: PGA, open-label extension of REVEAL; conditions: for PGA “Clear” or “Minimal”: n = 233, ITT, LOCF
Description: Laboratory parameters and adverse events were also recorded.

[3] = system: patients with moderate to severe chronic plaque psoriasis; assay: PASI response, CHAMPION 16-week Phase III trial vs methotrexate and placebo; conditions: for PASI 75 Response Rates, % Patients / PASI 90 Response Rates, % Patients: missing PASI = non-responder
Description: as §1

[4] = system: patients with severe psoriasis who were non-responders to high-dosage etanercept; assay: Adverse events, open-label adalimumab in non-responders to high-dosage etanercept; conditions: 12 weeks
Description: Details on clinical course and adverse events were recorded, along with measurements of PASI and Dermatology Life Quality Index (DLQI) at baseline and Weeks 2, 4, 8, and 12.

[5] = system: patients with moderate to severe plaque psoriasis; assay: PGA, 12-week open-label weekly therapy then randomized eow or withdrawal
[6] = system: adult patients with moderate to severe chronic plaque psoriasis; assay: PASI response and loss of adequate response, REVEAL 52-week Phase III trial; conditions: for PASI 100 Response Rates, % Patients: n = 814, ITT, NRI; for Mean Percentage PASI Improvement During Period B: relative to baseline, patients randomized to adalimumab who entered Period B, as observed; for patients with loss of adequate response: Week 33 PASI 75 responders re-randomized to continue adalimumab in period C, by Week 52
Source text: The main inclusion criteria for this study included a clinical diagnosis of psoriasis for ≧6 months and affected body surface area (BSA)≧10% and PASI≧12. The main exclusion criteria included prior use of systemic or biologic anti-TNF therapy. The washout period included two weeks for topical agents and UVB, 4 weeks for PUVA and non-biologic systemic therapies, and 12 weeks for all biologic therapies. The two co-primary endpoints were: • Percentage of patients achieving PASI≧75 at Week 16 • Percentage of patients, among Week 33 PASI≧75 responders, losing an adequate response after Week 33, characterized by: • PASI<50 (relative to baseline) and • At least a 6 point increase in PASI
Period A was double-blind, placebo-controlled, and lasted from weeks 0-16. […] At Week 16 patients who achieved ≧PASI 75 improvement continued into Period B, while those patients having <PASI 75 improvement entered the open label extension (OLE) study (FIG. 7).
Period B was open-label and lasted from Weeks 17-33. […] Patients who achieved ≧PASI 75 response at Week 33 entered Period C.
Period C was a double-blind, placebo-controlled which was held from weeks 34-52.
Various analytical methods were used in the study. Intention-to-treat (ITT) analyses were performed for all randomized patients in Periods A and C. […] Week 24 results from NRI analysis include pooled efficacy outcomes from OLE and Period B. After Week 24, non-overlapping OLE and Period B study visits prevent complete pooling of efficacy outcomes. Continuous variables were analyzed as observed during Period B
The REVEAL study had two independent primary endpoints. The first endpoint was the proportion of patients achieving 75 percent improvement in skin clearance after 16 weeks. The second endpoint was the proportion of patients who lost adequate response through week 52 after stopping treatment with HUMIRA at week 33. Signs of psoriasis were evaluated using the Psoriasis Area and Severity Index (PASI), among other measures. […] At week 52, the start of the OLE period, patients randomized at week 33, as well as patients originally in the placebo group at week 0, were able to enter the OLE period.

[7] = Adalimumab serum concentrations by ELISA, Phase II trial; conditions: for steady-state concentration: 40 mg eow dosing; for mean adalimumab serum concentration: 80 mg at Week 0 and 40 mg at Week 1
[8] = system: patients with moderate to severe plaque psoriasis; assay: PASI response and relapse, 12-week open-label weekly therapy then randomized eow or withdrawal
[9] = open-label 40 mg weekly, Week 12
[10] = Week 4, open-label 40 mg weekly, missing = non-responder
[11] = Week 8, open-label 40 mg weekly, missing = non-responder
[12] = Week 12, open-label 40 mg weekly, missing = non-responder
[13] = Week 24, randomized at Week 12 to 40 mg eow, missing = non-responder

Substance: Adalimumab: a human anti-TNF mAb, described in U.S. Pat. No. 6,090,382 as D2E7 (HUMIRA, Abbott Laboratories)
- PGA “Clear” or “Minimal” Responses, % Patients ([1]; Week 4): 7*† %
- PGA “Clear” or “Minimal” Responses, % Patients ([1]; Week 8): 27‡§ %
- PGA “Clear” or “Minimal” Responses, % Patients ([1]; Week 12): 48‡§ %
- PGA “Clear” or “Minimal” Responses, % Patients ([1]; Week 16): 52‡§ %
- PGA scores of “clear” or “minimal ([2]; OLE of REVEAL): 74%
- PGA “Clear” or “Minimal” ([2]; Week 0 of OLE): 70%
- PGA “Clear” or “Minimal” ([2]; Week 12 of OLE): 71%
- PGA “Clear” or “Minimal” ([2]; Week 24 of OLE): 74%
- mean percentage PASI improvement ([3]; Week 4): 57%
- PASI 75 Response Rates, % Patients ([3]; Week 4, ITT): 23*† %
- PASI 90 Response Rates, % Patients ([3]; Week 4, ITT): 7* %
- PASI 75 Response Rates, % Patients ([3]; Week 8, ITT): 62‡ %
- PASI 90 Response Rates, % Patients ([3]; Week 8, ITT): 27†‡ %
- PASI 75 Response Rates, % Patients ([3]; Week 12, ITT): 77‡ %
- PASI 90 Response Rates, % Patients ([3]; Week 12, ITT): 48†‡ %
- PASI 75 ([3]; Week 16, ITT, NRI): 80%
- PASI 75 Response Rates, % Patients ([3]; Week 16, ITT): 80‡ %
- PASI 90 Response Rates, % Patients ([3]; Week 16, ITT): 52†‡ %
- PASI 75 Response Rates, % Patients ([3]; Week 16, ITT, listed as ADA): 79.6% * †
- PASI 90 Response Rates, % Patients ([3]; Week 16, ITT, listed as ADA): 51.9% * †
- PASI 50 response rate ([3]; Week 16 of CHAMPION, ITT, NRI): 88.0% * †
- PASI 100 response rate ([3]; Week 16 of CHAMPION, ITT, NRI): 16.7% ‡ §
- Serious Adverse Events [4]: No serious adverse events were reported
- PGA “Clear” or “Minimal” [5, 9]: 66%
- PGA “Clear” or “Minimal” ([5]; randomized to 40 mg eow at Week 12, Week 24): 54.4%
- PASI 100 Response Rates, % Patients ([6]; Week 4, double-blind): 0.9%
- PASI 100 Response Rates, % Patients ([6]; Week 8, double-blind): 7.1* %
- PASI 100 Response Rates, % Patients ([6]; Week 12, double-blind): 14.4* %
- PASI 100 Response Rates, % Patients ([6]; Week 16, double-blind): 20* %
- Mean Percentage PASI Improvement During Period B ([6]; Week 16): 91.9%
- PASI 100 Response Rates, % Patients ([6]; Week 24, open-label, pooled Period B and OLE): 22.5* %
- Mean Percentage PASI Improvement During Period B ([6]; Week 24): 91.2%
- Mean Percentage PASI Improvement During Period B ([6]; Week 33): 89.3%
- patients with loss of adequate response [6]: 4.9* %
- patients with loss of adequate response ([6]; listed as adalimumab): 5%
- steady-state concentration ([7]; Week 11): 6.0 µg/mL
- steady-state concentration ([7]; Week 12): 6.9 µg/mL
- mean adalimumab serum concentration ([7]; Week 1): 6.0 µg/mL
- mean adalimumab serum concentration ([7]; Week 2): 8.8 µg/mL
- PASI50 response, Patients (%) [8, 10]: 59%
- PASI75 response, Patients (%) [8, 10]: 26%
- PASI90 response, Patients (%) [8, 10]: 9%
- PASI50 response, Patients (%) [8, 11]: 84%
- PASI75 response, Patients (%) [8, 11]: 55%
- PASI90 response, Patients (%) [8, 11]: 30%
- PASI50 response, Patients (%) [8, 12]: 92%
- PASI75 response, Patients (%) [8, 12]: 30%
- PASI90 response, Patients (%) [8, 12]: 47%
- PASI50, Patients (%) [8, 13]: 78%
- PASI75, Patients (%) [8, 13]: 68** %
- PASI90, Patients (%) [8, 13]: 47** %
- PASI 50 response rate ([8]; open-label 40 mg weekly, Week 2): 28%
- PASI 50 response rate [8, 9]: 92%
- PASI 75 response [8, 9]: 76.4%
- PASI 90 response [8, 9]: 47.3%
- patients who achieved ≧PASI 50 responses ([8]; patients exposed to alefacept within the past year, Week 12): 6/6
- patients who achieved ≧PASI 50 responses ([8]; patients exposed to efalizumab within the past year, Week 12): 14/15
- patients who achieved ≧PASI 50 responses ([8]; patients exposed to etanercept within the past year, Week 12): 12/14
- patients who achieved ≧PASI 50 responses ([8]; patients exposed to infliximab within the past year, Week 12): 4/4
